Measured values: patent US20190225650A1, “PEPTIDOMIMETIC MACROCYCLES AND USE THEREOF IN REGULATING HIF1ALPHA” (AILERON THERAPEUTICS, INC., priority 2013, published 2019)
Bridge positions count the residues as written; N and C are the ends. Square brackets hold non-standard residues; d marks the D form. Peptide text beside a SMILES is read from it. R8 = C=CCCCCCC[C@@](C)(N)C(=O)O; S5 = C=CCCC[C@](C)(N)C(=O)O; Nle = CCCC[C@H](N)C(=O)O

How the values were obtained:
[1] = target: T1, flag-tagged HIF1α (AA 786-826) / His6-tagged p300 (AA 323-423) complex (Homo sapiens, UniProt Q09472); assay: HIF1α p300 displacement assay (TR FRET, +CHAPS); format: binding; conditions: read-out: IC50 (nM) (HIF1α_p300 Displacement + CHAPS)
T1 construct: His6-tagged p300 (AA 323-423); made in house; host or cells: E. coli (pETDuet vector)
How it was run: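 In this TR-FRET displacement format, peptides compete HIF1α C-terminal transactivation domain off p300-CH. They were preincubated 1 h at room temperature with 300 nM complex in HEPES pH 7.4/NaCl buffer with 7.5 mM CHAPS and 1 mM DTT. Anti-His-D2 (4 nM) and anti-Flag-K (0.5 μM) followed for 2 h, and a one-site fit of the fluorescence ratio gave IC50.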

HRE-bla ME-180 cells [2] = assay: Cell proliferation assay (viability, MTT, 1% FBS); format: cell-based, human
How it was run: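 Viable cell number was measured with the CellTiter 96 (MTT) kit after compounds were applied for a 16 h normoxic (21% O2) pretreatment, followed by further normoxic or hypoxic (1% O2) culture. Cells: 2×10^4 ME-180 per well, Opti-MEM + 1% FBS, 0.5% DMSO vehicle.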

HRE-bla ME-180 cells [3] = assay: Reporter gene assay (HRE-bla ME-180 HIF reporter, GeneBLAzer); format: cell-based, human; conditions: for EC50: 24 hour normoxia
How it was run: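 A FRET β-lactamase readout of HIF transcription was used. After compound treatment in 0.3% DMSO/media under normoxic conditions, 20 μl of 6× LiveBLAzer-FRET B/G (CCF4-AM) substrate was added. Plates sat 3 hr at room temperature in the dark and were read at 409 Ex/460Em and 409Ex/530Em on a Synergy 2. Inhibition was compared against DMSO vehicle controls, with chetomin as positive control.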

SMILES	IC50 [1] [nM]	Viability 1% FBS AVG (MTT V3-24 hr Normoxia) (μM) (HRE-bla ME-180 cells [2])	18 h Avg % max inhibition at top conc (HIF Rptr-24 hrs normoxia) (μM) (HRE-bla ME-180 cells [3])	EC50 (HRE-bla ME-180 cells [3]) [µM]
CCCC[C@H](NC(=O)[C@H](CCC(=O)O)NC(=O)[C@]1(C)CCCC=CCCCCCC[C@@](C)(NC(=O)[C@H](CCC(=O)O)NC(=O)[C@H](CC(=O)O)NC(=O)[C@@H](NC(=O)[C@H](CC(N)=O)NC(=O)[C@@H](NC(=O)[C@]2(C)CCCC=CCCCCCC[C@@](C)(NC(=O)[C@H](CCC(=O)O)NC(=O)CNC(=O)[C@H](CCC(N)=O)NC(=O)[C@H](CC(C)C)NC(=O)[C@H](CC(C)C)NC(C)=O)C(=O)N[C@@H](CC(C)C)C(=O)N[C@@H](CC(C)C)C(=O)N[C@@H](CCCNC(=N)N)C(=O)N[C@@H](C)C(=O)N[C@@H](CC(C)C)C(=O)N[C@@H](CC(=O)O)C(=O)N2)C(C)C)[C@@H](C)CC)C(=O)N[C@@H](C(C)C)C(=O)N[C@@H](CC(C)C)C(=O)N[C@@H](CCCC)C(=O)N[C@@H](CO)C(=O)N[C@@H](CC(C)C)C(=O)N[C@@H](C(C)C)C(=O)N1)C(=O)N[C@@H](C)C(=O)N[C@@H](CC(C)C)C(N)=O [SP-373] (Ac-LLQGE[R8]LLRALD[S5]VNIDE[R8]VL[Nle]SLV[S5]E[Nle]AL-NH2; staple 6-13, 19-26)	200 to 400	++++ (≥30: ++++)	+++ (≤25 but <50: +++)	> 30
CC[C@H](C)[C@H](NC(=O)[C@H](CCCNC(=N)N)NC(=O)[C@H](CC(=O)O)NC(=O)[C@H](CC(C)C)NC(=O)[C@H](C)NC(=O)[C@H](CCSC)NC(=O)[C@H](CCC(=O)O)NC(=O)[C@@H](NC(=O)[C@@H](NC(=O)[C@H](CC(C)C)NC(=O)[C@]1(C)CCCC=CCCC[C@](C)(NC(=O)[C@H](CCC(=O)O)NC(=O)[C@H](CC(=O)O)NC(=O)[C@@H](NC(=O)[C@H](Cc2ccccc2)NC(C)=O)[C@@H](C)CC)C(=O)N[C@@H](C(C)C)C(=O)N[C@@H](CC(C)C)C(=O)N[C@@H](CCSC)C(=O)N1)C(C)C)[C@@H](C)CC)C(N)=O [SP-108] (Ac-FIDE[S5]VLM[S5]LVIEMALDRI-NH2; staple 5-9)	≤ 200	++++ (≥30: ++++)	++ (≤10 but <25: ++)	> 30
CCCC[C@H](NC(=O)[C@H](CCC(=O)O)NC(=O)[C@@H](NC(=O)[C@@H](NC(=O)[C@H](CC(C)C)NC(=O)[C@]1(C)CCCC=CCCC[C@](C)(NC(=O)[C@H](C)NC(=O)[C@H](CC(=O)O)NC(=O)[C@@H](NC(=O)[C@H](Cc2ccccc2)NC(C)=O)[C@@H](C)CC)C(=O)N[C@@H](C(C)C)C(=O)N[C@@H](CC(C)C)C(=O)N[C@@H](CCCC)C(=O)N1)C(C)C)[C@@H](C)CC)C(=O)N[C@@H](C)C(=O)N[C@@H](CC(C)C)C(N)=O [SP-148] (Ac-FIDA[S5]VL[Nle][S5]LVIE[Nle]AL-NH2; staple 5-9)	> 700	++++ (≥30: ++++)	+++ (≤25 but <50: +++)	> 30
CCCC[C@H](NC(=O)[C@H](CCC(=O)O)NC(=O)[C@]1(C)CCCC=CCCCCCC[C@@](C)(NC(=O)[C@H](CCC(=O)O)NC(=O)[C@H](CC(=O)O)NC(=O)[C@@H](NC(=O)[C@H](CC(N)=O)NC(=O)[C@@H](NC(=O)[C@H](CCC(N)=O)NC(=O)[C@]2(C)CCCC=CCCC[C@](C)(NC(=O)[C@H](CC(C)C)NC(=O)[C@H](CCC(=O)O)NC(=O)[C@H](CCC(=O)O)NC(=O)[C@H](C)NC(=O)[C@H](CCC(N)=O)NC(=O)[C@H](CC(C)C)NC(=O)[C@H](CC(C)C)NC(C)=O)C(=O)N[C@@H](CCCNC(=N)N)C(=O)N[C@@H](C)C(=O)N[C@@H](CC(C)C)C(=O)N2)C(C)C)[C@@H](C)CC)C(=O)N[C@@H](C(C)C)C(=O)N[C@@H](CC(C)C)C(=O)N[C@@H](CCCC)C(=O)N[C@@H](CO)C(=O)N[C@@H](CC(C)C)C(=O)N[C@@H](C(C)C)C(=O)N1)C(N)=O [SP-367] (Ac-LLQAEEL[S5]RAL[S5]QVNIDE[R8]VL[Nle]SLV[S5]E[Nle]-NH2; staple 8-12, 19-26)	400 to 700	++++ (≥30: ++++)	++++ (≥50: ++++)	≤ 5
CC[C@H](C)[C@H](NC(=O)[C@H](Cc1ccccc1)NC(C)=O)C(=O)N[C@@H](CC(=O)O)C(=O)N[C@@H](CCC(=O)O)C(=O)N[C@@]1(C)CCCC=CCCC[C@@](C)(C(=O)N[C@@H](CC(C)C)C(=O)N[C@H](C(=O)N[C@H](C(=O)N[C@@H](CCC(=O)O)C(=O)N[C@@H](CCSC)C(=O)N[C@@H](C)C(=O)N[C@@H](C)C(N)=O)[C@@H](C)CC)C(C)C)NC(=O)[C@H](CCSC)NC(=O)[C@H](CC(C)C)NC(=O)[C@H](C(C)C)NC1=O [SP-116] (Ac-FIDE[S5]VLM[S5]LVIEMAA-NH2; staple 5-9)	> 700	++++ (≥30: ++++)	+++ (≤25 but <50: +++)	> 30
CCCC[C@H](NC(=O)[C@H](Cc1ccccc1)NC(=O)[C@@H](NC(=O)[C@H](C)NC(=O)[C@H](CCC(N)=O)NC(=O)[C@H](CC(=O)O)NC(=O)[C@@H](NC(=O)[C@H](Cc1ccccc1)NC(C)=O)[C@@H](C)CC)C(C)C)C(=O)N[C@@]1(C)CCCC=CCCC[C@@](C)(C(=O)N[C@@H](CCCNC(=N)N)C(=O)N[C@@H](C)C(=O)N[C@@H](CC(C)C)C(=O)N[C@@H](CC(C)C)C(N)=O)NC(=O)[C@H]([C@@H](C)CC)NC(=O)[C@H](C(C)C)NC(=O)[C@H](CC(C)C)NC1=O [SP-256] (Ac-FIDQAVF[Nle][S5]LVI[S5]RALL-NH2; staple 9-13)	> 700	++ (≤5 but <15: ++)	++++ (≥50: ++++)	≤ 5
CCCC[C@H](NC(=O)[C@H](Cc1ccccc1)NC(=O)[C@@H](NC(=O)[C@H](C)NC(=O)[C@H](CCC(N)=O)NC(=O)[C@H](CC(=O)O)NC(=O)[C@@H](NC(=O)[C@H](Cc1ccccc1)NC(C)=O)[C@@H](C)CC)C(C)C)C(=O)N[C@@]1(C)CCCC=CCCC[C@@](C)(C(=O)N[C@@H](CO)C(=O)N[C@@H](C)C(=O)N[C@@H](CC(C)C)C(=O)N[C@@H](CC(C)C)C(N)=O)NC(=O)[C@H]([C@@H](C)CC)NC(=O)[C@H](C(C)C)NC(=O)[C@H](CC(C)C)NC1=O [SP-257] (Ac-FIDQAVF[Nle][S5]LVI[S5]SALL-NH2; staple 9-13)	> 700	++ (≤5 but <15: ++)	++++ (≥50: ++++)	5 to 15
CCCC[C@H](NC(=O)[C@H](CCC(=O)O)NC(=O)[C@]1(C)CCCC=CCCCCCC[C@@](C)(NC(=O)[C@H](CCC(=O)O)NC(=O)[C@H](C)NC(=O)[C@@H](NC(=O)[C@H](Cc2ccccc2)NC(C)=O)[C@@H](C)CC)C(=O)N[C@@H](C(C)C)C(=O)N[C@@H](CC(C)C)C(=O)N[C@@H](CCCC)C(=O)N[C@@H](CO)C(=O)N[C@@H](CC(C)C)C(=O)N[C@@H](C(C)C)C(=O)N1)C(=O)N[C@@H](C)C(=O)N[C@@H](CC(C)C)C(=O)N[C@@H](CC(=O)O)C(=O)N[C@@H](C)C(=O)N[C@H](C(N)=O)[C@@H](C)CC [SP-192] (Ac-FIAE[R8]VL[Nle]SLV[S5]E[Nle]ALDAI-NH2; staple 5-12)	200 to 400	++++ (≥30: ++++)	++ (≤10 but <25: ++)	> 30
CCCC[C@H](NC(=O)[C@H](CC(C)C)NC(=O)[C@@H](NC(=O)[C@H](CCC(=O)O)NC(=O)[C@H](CCC(=O)O)NC(=O)[C@H](C)NC(=O)[C@@H](NC(=O)[C@H](Cc1ccccc1)NC(C)=O)[C@@H](C)CC)C(C)C)C(=O)N[C@@]1(C)CCCC=CCCC[C@@](C)(C(=O)N[C@@H](CCCC)C(=O)N[C@@H](C)C(=O)N[C@@H](CC(C)C)C(=O)N[C@@H](CC(=O)O)C(=O)N[C@@H](C)C(=O)N[C@H](C(N)=O)[C@@H](C)CC)NC(=O)[C@H]([C@@H](C)CC)NC(=O)[C@H](C(C)C)NC(=O)[C@H](CC(C)C)NC1=O [SP-221] (Ac-FIAEEVL[Nle][S5]LVI[S5][Nle]ALDAI-NH2; staple 9-13)	200 to 400	++++ (≥30: ++++)	++++ (≥50: ++++)	15 to 30
CCCC[C@@H]1NC(=O)[C@H](CC(C)C)NC(=O)[C@H](CC(N)=O)NC(=O)[C@@](C)(NC(=O)[C@H](CCC(=O)O)NC(=O)[C@H](CC(=O)O)NC(=O)[C@@H](NC(=O)[C@H](Cc2ccccc2)NC(C)=O)[C@@H](C)CC)CCCC=CCCCC2(CCCC=CCCC[C@](C)(C(=O)N[C@@H](CCCC)C(=O)N[C@@H](C)C(=O)N[C@@H](CC(C)C)C(N)=O)NC(=O)[C@H]([C@@H](C)CC)NC(=O)[C@H](C(C)C)NC(=O)[C@H](CC(C)C)NC2=O)NC1=O (stereo partly shown) [SP-208]	> 700	++ (≤5 but <15: ++)	+++ (≤25 but <50: +++)	5 to 15
